Starred links: 1 amine or outer side, 2 acyl side, 3 side chain; linkers in the order of their positions; H or OH if unused. Positions of bridges follow the written chain, without caps; N, C: chain ends. Non-standard residues stand in square brackets, D forms with d. Residues, ends and D or L forms follow the SMILES beside them. *: point of attachment. Bip(4'-NH) = O=C([C@H](Cc1ccc(-c2ccc(N[*:3])cc2)cc1)N[*:1])[*:2]; X45 = CS(=O)(=O)Nc1ccc(CNC(=N)NCCC[C@@H](N[*:1])C(=O)[*:2])cc1; Bip(4'-CONHMe) = CNC(=O)c1ccc(-c2ccc(C[C@H](N)C(=O)O)cc2)cc1; dArg(ω-Bn(3-CH2OH)) = N=C(NCCC[C@@H](N)C(=O)O)NCc1cccc(CO)c1; Indazole3carbonyl(1-CH2COOH) = O=C(O)Cn1nc(C(=O)*)c2ccccc21; X23 = N=C(N)Nc1ccc(CNC(=N)NCCC[C@@H](N[*:1])C(=O)[*:2])cc1; X29 = N=C(NCCC[C@@H](N[*:1])C(=O)[*:2])NCCc1ccc(F)c(F)c1; X30 = N#Cc1ccc(CCNC(=N)NCCC[C@@H](N[*:1])C(=O)[*:2])cc1; X8 = N=C(NCCC[C@@H](N[*:1])C(=O)[*:2])NCCc1ccc(CN)cc1; Ala(morpholin-4-yl) = N[C@@H](CN1CCOCC1)C(=O)O; Bip = N[C@@H](Cc1ccc(-c2ccccc2)cc1)C(=O)O; Sar = CNCC(=O)O
The compounds below were run against TNFα (Homo sapiens, UniProt P01375) (assay: TNF-Induced HEK-Blue Assay).
TNFα, sequence (P01375 77-233 limits assumed): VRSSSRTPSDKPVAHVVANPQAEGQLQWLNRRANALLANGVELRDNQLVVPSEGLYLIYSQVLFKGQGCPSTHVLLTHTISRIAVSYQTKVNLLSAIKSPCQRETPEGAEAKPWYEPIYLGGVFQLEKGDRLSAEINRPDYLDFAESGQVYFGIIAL
Type: cell-based
With `CC(C)C[C@@H]1NC(=O)[C@H](CCCNC(=N)N)NC(=O)[C@H](C(C)C)NC(=O)[C@@H]2CCCN2C(=O)[C@H](C(C)C)NC(=O)[C@@H](CCCNC(=N)NCCc2ccc(F)c(F)c2)NC(=O)[C@H](CC(=O)O)NC(=O)[C@@H]2CCCN2C(=O)CN(C)C(=O)[C@H](Cc2ccc(-c3ccc(NC(=O)c4nn(CC(=O)O)c5ccccc45)cc3)cc2)NC(=O)[C@H](Cc2ccc(-c3ccccc3)cc2)NC(=O)[C@H](CN2CCOCC2)NC(=O)CSC[C@@H](C(=O)NCC(N)=O)NC1=O` [Example 423] ({CH2CO}-[Ala(morpholin-4-yl)][Bip][Bip(4'-NH)](Indazole3carbonyl(1-CH2COOH))[Sar]PD[X29]VPVRLCG-NH2; thioether N-13) the IC50 was < 50 nM.
Compound `CNC(=O)c1ccc(-c2ccc(C[C@@H]3NC(=O)[C@H](CN4CCOCC4)NC(=O)CSC[C@@H](C(=O)NCC(N)=O)NC(=O)[C@H](CC(C)C)NC(=O)[C@H](CCCNC(=N)N)NC(=O)[C@H](C(C)C)NC(=O)[C@@H]4CCCN4C(=O)[C@H](C(C)C)NC(=O)[C@@H](CCCNC(=N)NCCc4ccc(F)c(F)c4)NC(=O)[C@H](CC(=O)O)NC(=O)[C@@H]4CCCN4C(=O)CN(C)C(=O)[C@H](Cc4ccc(-c5ccc(NC(=O)c6nn(CC(=O)O)c7ccccc67)cc5)cc4)NC3=O)cc2)cc1` [Example 424] ({CH2CO}-[Ala(morpholin-4-yl)][Bip(4'-CONHMe)][Bip(4'-NH)](Indazole3carbonyl(1-CH2COOH))[Sar]PD[X29]VPVRLCG-NH2; thioether N-13) has an IC50 of 50 to 200 nM.
With `CC(C)C[C@@H]1NC(=O)[C@H](CCCNC(=N)N)NC(=O)[C@H](C(C)C)NC(=O)[C@@H]2CCCN2C(=O)[C@H](C(C)C)NC(=O)[C@@H](CCCNC(=N)NCc2cccc(CO)c2)NC(=O)[C@H](CC(=O)O)NC(=O)[C@@H]2CCCN2C(=O)CN(C)C(=O)[C@H](Cc2ccc(-c3ccc(NC(=O)c4nn(CC(=O)O)c5ccccc45)cc3)cc2)NC(=O)[C@H](Cc2ccc(-c3ccccc3)cc2)NC(=O)[C@H](CN2CCOCC2)NC(=O)CSC[C@@H](C(=O)NCC(N)=O)NC1=O` [Example 425] ({CH2CO}-[Ala(morpholin-4-yl)][Bip][Bip(4'-NH)](Indazole3carbonyl(1-CH2COOH))[Sar]PD[dArg(ω-Bn(3-CH2OH))]VPVRLCG-NH2; thioether N-13) the IC50 was < 50 nM.
In the case of `CNC(=O)c1ccc(-c2ccc(C[C@@H]3NC(=O)[C@H](CN4CCOCC4)NC(=O)CSC[C@@H](C(=O)NCC(N)=O)NC(=O)[C@H](CC(C)C)NC(=O)[C@H](CCCNC(=N)N)NC(=O)[C@H](C(C)C)NC(=O)[C@@H]4CCCN4C(=O)[C@H](C(C)C)NC(=O)[C@@H](CCCNC(=N)NCc4cccc(CO)c4)NC(=O)[C@H](CC(=O)O)NC(=O)[C@@H]4CCCN4C(=O)CN(C)C(=O)[C@H](Cc4ccc(-c5ccc(NC(=O)c6nn(CC(=O)O)c7ccccc67)cc5)cc4)NC3=O)cc2)cc1` [Example 426] ({CH2CO}-[Ala(morpholin-4-yl)][Bip(4'-CONHMe)][Bip(4'-NH)](Indazole3carbonyl(1-CH2COOH))[Sar]PD[dArg(ω-Bn(3-CH2OH))]VPVRLCG-NH2; thioether N-13), the IC50 is reported as < 50 nM.
`CC(C)C[C@@H]1NC(=O)[C@H](CCCNC(=N)N)NC(=O)[C@H](C(C)C)NC(=O)[C@@H]2CCCN2C(=O)[C@H](C(C)C)NC(=O)[C@@H](CCCNC(=N)NCc2ccc(NS(C)(=O)=O)cc2)NC(=O)[C@H](CC(=O)O)NC(=O)[C@@H]2CCCN2C(=O)CN(C)C(=O)[C@H](Cc2ccc(-c3ccc(NC(=O)c4nn(CC(=O)O)c5ccccc45)cc3)cc2)NC(=O)[C@H](Cc2ccc(-c3ccccc3)cc2)NC(=O)[C@H](CN2CCOCC2)NC(=O)CSC[C@@H](C(=O)NCC(N)=O)NC1=O` [Example 427] ({CH2CO}-[Ala(morpholin-4-yl)][Bip][Bip(4'-NH)](Indazole3carbonyl(1-CH2COOH))[Sar]PD[X45]VPVRLCG-NH2; thioether N-13) was tested, and the IC50 was 50 to 200 nM.
`CC(C)C[C@@H]1NC(=O)[C@H](CCCNC(=N)N)NC(=O)[C@H](C(C)C)NC(=O)[C@@H]2CCCN2C(=O)[C@H](C(C)C)NC(=O)[C@@H](CCCNC(=N)NCCc2ccc(C#N)cc2)NC(=O)[C@H](CC(=O)O)NC(=O)[C@@H]2CCCN2C(=O)CN(C)C(=O)[C@H](Cc2ccc(-c3ccc(NC(=O)c4nn(CC(=O)O)c5ccccc45)cc3)cc2)NC(=O)[C@H](Cc2ccc(-c3ccccc3)cc2)NC(=O)[C@H](CN2CCOCC2)NC(=O)CSC[C@@H](C(=O)NCC(N)=O)NC1=O` [Example 428] ({CH2CO}-[Ala(morpholin-4-yl)][Bip][Bip(4'-NH)](Indazole3carbonyl(1-CH2COOH))[Sar]PD[X30]VPVRLCG-NH2; thioether N-13) gave an IC50 of 50 to 200 nM.
In the case of `CC(C)C[C@@H]1NC(=O)[C@H](CCCNC(=N)N)NC(=O)[C@H](C(C)C)NC(=O)[C@@H]2CCCN2C(=O)[C@H](C(C)C)NC(=O)[C@@H](CCCNC(=N)NCCc2ccc(CN)cc2)NC(=O)[C@H](CC(=O)O)NC(=O)[C@@H]2CCCN2C(=O)CN(C)C(=O)[C@H](Cc2ccc(-c3ccc(NC(=O)c4nn(CC(=O)O)c5ccccc45)cc3)cc2)NC(=O)[C@H](Cc2ccc(-c3ccccc3)cc2)NC(=O)[C@H](CN2CCOCC2)NC(=O)CSC[C@@H](C(=O)NCC(N)=O)NC1=O` [Example 429] ({CH2CO}-[Ala(morpholin-4-yl)][Bip][Bip(4'-NH)](Indazole3carbonyl(1-CH2COOH))[Sar]PD[X8]VPVRLCG-NH2; thioether N-13), the IC50 is reported as 200 to 2000 nM.
With `CNC(=O)c1ccc(-c2ccc(C[C@@H]3NC(=O)[C@H](CN4CCOCC4)NC(=O)CSC[C@@H](C(=O)NCC(N)=O)NC(=O)[C@H](CC(C)C)NC(=O)[C@H](CCCNC(=N)N)NC(=O)[C@H](C(C)C)NC(=O)[C@@H]4CCCN4C(=O)[C@H](C(C)C)NC(=O)[C@@H](CCCNC(=N)NCCc4ccc(C#N)cc4)NC(=O)[C@H](CC(=O)O)NC(=O)[C@@H]4CCCN4C(=O)CN(C)C(=O)[C@H](Cc4ccc(-c5ccc(NC(=O)c6nn(CC(=O)O)c7ccccc67)cc5)cc4)NC3=O)cc2)cc1` [Example 430] ({CH2CO}-[Ala(morpholin-4-yl)][Bip(4'-CONHMe)][Bip(4'-NH)](Indazole3carbonyl(1-CH2COOH))[Sar]PD[X30]VPVRLCG-NH2; thioether N-13) the IC50 was < 50 nM.
`CNC(=O)c1ccc(-c2ccc(C[C@@H]3NC(=O)[C@H](CN4CCOCC4)NC(=O)CSC[C@@H](C(=O)NCC(N)=O)NC(=O)[C@H](CC(C)C)NC(=O)[C@H](CCCNC(=N)N)NC(=O)[C@H](C(C)C)NC(=O)[C@@H]4CCCN4C(=O)[C@H](C(C)C)NC(=O)[C@@H](CCCNC(=N)NCCc4ccc(CN)cc4)NC(=O)[C@H](CC(=O)O)NC(=O)[C@@H]4CCCN4C(=O)CN(C)C(=O)[C@H](Cc4ccc(-c5ccc(NC(=O)c6nn(CC(=O)O)c7ccccc67)cc5)cc4)NC3=O)cc2)cc1` [Example 431] ({CH2CO}-[Ala(morpholin-4-yl)][Bip(4'-CONHMe)][Bip(4'-NH)](Indazole3carbonyl(1-CH2COOH))[Sar]PD[X8]VPVRLCG-NH2; thioether N-13) showed an IC50 of 50 to 200 nM.
For `CC(C)C[C@@H]1NC(=O)[C@H](CCCNC(=N)N)NC(=O)[C@H](C(C)C)NC(=O)[C@@H]2CCCN2C(=O)[C@H](C(C)C)NC(=O)[C@@H](CCCNC(=N)NCc2ccc(NC(=N)N)cc2)NC(=O)[C@H](CC(=O)O)NC(=O)[C@@H]2CCCN2C(=O)CN(C)C(=O)[C@H](Cc2ccc(-c3ccc(NC(=O)c4nn(CC(=O)O)c5ccccc45)cc3)cc2)NC(=O)[C@H](Cc2ccc(-c3ccccc3)cc2)NC(=O)[C@H](CN2CCOCC2)NC(=O)CSC[C@@H](C(=O)NCC(N)=O)NC1=O` [Example 432] ({CH2CO}-[Ala(morpholin-4-yl)][Bip][Bip(4'-NH)](Indazole3carbonyl(1-CH2COOH))[Sar]PD[X23]VPVRLCG-NH2; thioether N-13), the IC50 was 50 to 200 nM.

— patent US20250145665A1, “MACROCYCLIC PEPTIDES USEFUL AS MODULATORS OF TNF ALPHA” (Bristol-Myers Squibb Company, priority 2023, published 2025)
